For two compounds, Ki and IC50 results are on record in ChEMBL document CHEMBL1133576, “Structural basis of the thrombin selectivity of a ligand that contains the constrained arginine mimic (2S)-2-amino-(3S)-3-(1-carbamimidoyl- piperidin-3-yl)-propanoic acid at P1” (J Med Chem, 2000).

Structures are written as SMILES.

The target of one test is Prothrombin (Homo sapiens, UniProt P00734). Kind of test: Inhibitory activity towards Thrombin.
A further test addresses Serine protease 1 (Homo sapiens, UniProt P07477). Nature of the test: Inhibitory activity towards Trypsin.

Sequence of Serine protease 1 (P07477 whole entry): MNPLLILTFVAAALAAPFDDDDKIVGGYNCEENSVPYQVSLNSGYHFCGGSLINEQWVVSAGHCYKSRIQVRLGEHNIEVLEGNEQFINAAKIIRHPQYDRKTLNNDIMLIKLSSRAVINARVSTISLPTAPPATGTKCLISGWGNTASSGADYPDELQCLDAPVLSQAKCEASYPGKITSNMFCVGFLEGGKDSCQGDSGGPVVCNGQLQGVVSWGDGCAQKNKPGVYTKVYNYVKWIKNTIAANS

Take `N=C(N)NCCC[C@H](NC(=O)[C@@H]1CC[C@H]2CN(C(=O)CCc3ccccc3)CC(=O)N21)C(=O)c1nccs1`: the affinity on Prothrombin, expressed as Ki, was 0.6 nM. Besides, half-maximal inhibition at Serine protease 1 (IC50) required 1 nM.

As for `N=C(N)N1CCCC(C[C@H](NC(=O)[C@@H]2CC[C@H]3CN(C(=O)CCc4ccccc4)CC(=O)N32)C(=O)c2nccs2)C1` (some centres undefined), the figures for the Ki on Prothrombin and on Serine protease 1 were 3.5 nM and 4000 nM, respectively.
